Data as given in patent US9926282B2, “Phthalazinones and isoquinolinones as rock inhibitors” (BRISTOL-MYERS SQUIBB COMPANY, priority 2013, dated 2018).

Legend:
ROCK1 = ROCK1 (Homo sapiens (Human), UniProt Q13464); test: ROCK assay (LABCHIP peptide phosphorylation), ROCK1; assay type: biochemical; conditions: 5 μM ATP, 1.5 μM peptide substrate; read-out: ROCK1 IC50
ROCK2 = ROCK2 (Homo sapiens (Human), UniProt O75116); test: ROCK assay (LABCHIP peptide phosphorylation), ROCK2; assay type: biochemical; conditions: 5 μM ATP, 1.5 μM peptide substrate
Sequence of ROCK2 (O75116 whole entry, species assumed): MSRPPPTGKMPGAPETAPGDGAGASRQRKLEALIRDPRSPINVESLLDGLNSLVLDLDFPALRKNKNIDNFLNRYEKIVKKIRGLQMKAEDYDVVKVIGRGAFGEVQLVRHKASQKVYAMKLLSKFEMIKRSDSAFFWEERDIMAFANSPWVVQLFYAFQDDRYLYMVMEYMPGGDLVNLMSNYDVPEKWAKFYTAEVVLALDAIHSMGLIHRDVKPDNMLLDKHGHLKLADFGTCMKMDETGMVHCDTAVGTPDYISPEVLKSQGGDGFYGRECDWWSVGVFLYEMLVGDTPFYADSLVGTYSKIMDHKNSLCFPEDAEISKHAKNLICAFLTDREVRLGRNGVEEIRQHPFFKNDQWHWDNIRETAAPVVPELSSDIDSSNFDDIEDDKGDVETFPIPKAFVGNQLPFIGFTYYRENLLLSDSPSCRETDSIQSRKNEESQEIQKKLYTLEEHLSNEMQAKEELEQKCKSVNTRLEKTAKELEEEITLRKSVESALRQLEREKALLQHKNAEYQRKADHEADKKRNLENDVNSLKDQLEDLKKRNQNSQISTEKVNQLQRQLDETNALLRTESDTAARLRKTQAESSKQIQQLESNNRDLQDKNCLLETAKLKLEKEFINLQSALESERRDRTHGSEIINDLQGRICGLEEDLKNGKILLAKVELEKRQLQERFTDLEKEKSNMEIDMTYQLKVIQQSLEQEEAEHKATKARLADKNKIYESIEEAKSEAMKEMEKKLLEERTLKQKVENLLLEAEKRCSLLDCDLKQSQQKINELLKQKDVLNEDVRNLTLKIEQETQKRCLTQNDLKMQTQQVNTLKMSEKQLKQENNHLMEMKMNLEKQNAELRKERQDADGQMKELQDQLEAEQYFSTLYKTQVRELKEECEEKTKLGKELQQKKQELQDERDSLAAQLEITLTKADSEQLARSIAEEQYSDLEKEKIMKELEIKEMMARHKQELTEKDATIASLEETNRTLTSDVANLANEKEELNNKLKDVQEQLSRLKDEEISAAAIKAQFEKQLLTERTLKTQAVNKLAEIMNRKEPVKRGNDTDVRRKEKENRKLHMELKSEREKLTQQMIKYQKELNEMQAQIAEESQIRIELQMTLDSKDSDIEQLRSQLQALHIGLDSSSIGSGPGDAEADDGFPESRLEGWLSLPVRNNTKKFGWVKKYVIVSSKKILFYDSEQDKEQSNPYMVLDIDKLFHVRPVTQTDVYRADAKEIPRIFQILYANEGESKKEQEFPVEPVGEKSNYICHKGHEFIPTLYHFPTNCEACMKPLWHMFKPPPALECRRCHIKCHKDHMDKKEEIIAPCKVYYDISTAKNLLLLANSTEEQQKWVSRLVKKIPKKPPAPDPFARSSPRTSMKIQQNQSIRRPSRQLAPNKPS

Sequence of ROCK1 (Q13464 whole entry, species assumed): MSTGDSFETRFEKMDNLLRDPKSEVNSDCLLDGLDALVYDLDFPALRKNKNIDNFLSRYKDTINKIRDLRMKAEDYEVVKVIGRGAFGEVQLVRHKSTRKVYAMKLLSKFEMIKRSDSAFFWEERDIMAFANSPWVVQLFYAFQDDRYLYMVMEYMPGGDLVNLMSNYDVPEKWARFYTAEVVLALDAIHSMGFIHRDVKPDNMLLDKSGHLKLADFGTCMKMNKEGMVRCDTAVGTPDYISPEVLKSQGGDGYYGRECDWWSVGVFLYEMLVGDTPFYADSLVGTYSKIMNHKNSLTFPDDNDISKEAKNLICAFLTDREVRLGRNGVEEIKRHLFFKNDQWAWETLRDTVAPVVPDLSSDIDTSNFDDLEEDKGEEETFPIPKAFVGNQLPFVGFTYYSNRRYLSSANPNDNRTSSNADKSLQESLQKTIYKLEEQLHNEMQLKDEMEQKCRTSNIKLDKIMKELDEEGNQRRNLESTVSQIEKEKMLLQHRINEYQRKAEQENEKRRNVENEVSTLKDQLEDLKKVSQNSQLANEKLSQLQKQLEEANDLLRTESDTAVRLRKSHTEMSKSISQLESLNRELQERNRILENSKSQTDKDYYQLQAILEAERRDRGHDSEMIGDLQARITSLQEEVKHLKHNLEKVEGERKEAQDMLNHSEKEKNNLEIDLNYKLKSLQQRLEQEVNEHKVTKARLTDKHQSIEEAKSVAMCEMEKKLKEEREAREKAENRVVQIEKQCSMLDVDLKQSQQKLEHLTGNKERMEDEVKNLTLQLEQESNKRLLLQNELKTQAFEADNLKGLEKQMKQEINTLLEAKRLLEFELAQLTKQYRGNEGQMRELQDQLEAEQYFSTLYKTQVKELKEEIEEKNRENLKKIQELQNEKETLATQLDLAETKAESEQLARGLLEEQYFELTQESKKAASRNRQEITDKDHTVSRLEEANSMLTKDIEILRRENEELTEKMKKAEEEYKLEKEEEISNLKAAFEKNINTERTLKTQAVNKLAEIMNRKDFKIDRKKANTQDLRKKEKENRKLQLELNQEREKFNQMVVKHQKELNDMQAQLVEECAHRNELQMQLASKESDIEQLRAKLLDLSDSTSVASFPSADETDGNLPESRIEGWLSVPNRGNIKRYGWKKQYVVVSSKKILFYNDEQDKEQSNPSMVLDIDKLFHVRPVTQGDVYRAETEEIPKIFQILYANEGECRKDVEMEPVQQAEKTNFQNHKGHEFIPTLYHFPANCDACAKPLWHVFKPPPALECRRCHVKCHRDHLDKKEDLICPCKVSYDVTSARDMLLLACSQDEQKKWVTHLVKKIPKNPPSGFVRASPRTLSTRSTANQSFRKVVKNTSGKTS

| SMILES | IC50 (ROCK1) | IC50 (ROCK2) |
| --- | --- | --- |
| CC(C)(O)Cn1cc(C(=O)Nc2ccc(-c3n[nH]c(=O)c4ccccc34)cc2)cn1 [Example 377, 1-(2-Hydroxy-2-methylpropyl)-N-(4-(4-oxo-3,4-dihydrophthalazin-1-yl)phenyl)-1H-pyrazole-4-carboxamide] | 1 to 50 µM | 0.0001 to 0.1 µM |
| O=C(Nc1ccc(-c2n[nH]c(=O)c3ccccc23)cc1)c1cnn(C2CCNC2)c1 (centres unmarked) [Example 397, N-(4-(4-Oxo-3,4-dihydrophthalazin-1-yl)phenyl)-1-(pyrrolidin-3-yl)-1H-pyrazole-4-carboxamide] | 1 to 50 µM | 0.101 to 1 µM |
| Cc1cc(NC(=O)c2cc(C(C)(C)C)n(C)n2)ccc1-c1n[nH]c(=O)c2ccccc12 [Example 395, 5-(tert-Butyl)-1-methyl-N-(3-methyl-4-(4-oxo-3,4-dihydrophthalazin-1-yl)phenyl)-1H-pyrazole-3-carboxamide] | 0.0001 to 0.1 µM | 0.0001 to 0.1 µM |
| Cc1cc(CC(=O)N2Cc3ccccc3C2)ccc1-c1c[nH]c(=O)c2ccccc12 [Example 263, 4-(4-(2-(Isoindolin-2-yl)-2-oxoethyl)-2-methylphenyl)isoquinolin-1(2H)-one] | 0.101 to 1 µM | 0.0001 to 0.1 µM |
| CN(C)c1cccc(C(=O)Nc2ccc(-c3n[nH]c(=O)c4ccccc34)cc2)c1 [Example 66, 3-(dimethylamino)-N-[4-(4-oxo-3,4-dihydrophthalazin-1-yl)phenyl]benzamide] | 0.0001 to 0.1 µM | 0.0001 to 0.1 µM |
| O=C(Cc1ccc(-c2n[nH]c(=O)c3ccccc23)cc1)Nc1ccc2c(c1)OCCO2 [Example 24, N-(2,3-dihydro-1,4-benzodioxin-6-yl)-2-[4-(4-oxo-3,4-dihydrophthalazin-1-yl)phenyl]acetamide] | 0.101 to 1 µM | 0.0001 to 0.1 µM |
| O=C(Nc1ccc(-c2n[nH]c(=O)c3ccccc23)cc1)c1n[nH]c2c1C(=O)CCC2 [Example 109, 4-oxo-N-[4-(4-oxo-3,4-dihydrophthalazin-1-yl)phenyl]-4,5,6,7-tetrahydro-1H-indazole-3-carboxamide] | 0.0001 to 0.1 µM | 0.0001 to 0.1 µM |
| O=C(Nc1ccc(-c2n[nH]c(=O)c3ccccc23)c(CO)c1)c1cnn2ccccc12 [Example 362, N-(3-(Hydroxymethyl)-4-(4-oxo-3,4-dihydrophthalazin-1-yl)phenyl)pyrazolo[1,5-a]pyridine-3-carboxamide] | 1 to 50 µM | 0.0001 to 0.1 µM |
| Cn1c(C(=O)Nc2ccc(-c3n[nH]c(=O)c4ccccc34)cc2)cc2cc(Cl)ccc21 [Example 96, 5-chloro-1-methyl-N-[4-(4-oxo-3,4-dihydrophthalazin-1-yl)phenyl]-1H-indole-2-carboxamide] | 0.101 to 1 µM | 0.0001 to 0.1 µM |
| CN1CCC(Cn2nc(C(=O)Nc3ccc(-c4n[nH]c(=O)c5ccccc45)cc3)c3ccccc32)CC1 [Example 356, 1-((1-Methylpiperidin-4-yl)methyl)-N-(4-(4-oxo-3,4-dihydrophthalazin-1-yl)phenyl)-1H-indazole-3-carboxamide] | 0.0001 to 0.1 µM | 0.101 to 1 µM |
| O=C(Nc1ccc(-c2n[nH]c(=O)c3ccccc23)cc1)C1CC(c2ccccc2)=NO1 (centres unmarked) [Example 196, N-[4-(4-oxo-3,4-dihydrophthalazin-1-yl)phenyl]-3-phenyl-4,5-dihydro-1,2-oxazole-5-carboxamide] | 1 to 50 µM | 0.101 to 1 µM |
| CC(O)Cn1nc(C(=O)Nc2ccc(-c3n[nH]c(=O)c4ccccc34)cc2)c2ccccc21 (centres unmarked) [Example 153, 1-(2-hydroxypropyl)-N-[4-(4-oxo-3,4-dihydrophthalazin-1-yl)phenyl]-1H-indazole-3-carboxamide] | 0.0001 to 0.1 µM | 0.0001 to 0.1 µM |
| O=C(Nc1ccc(-c2n[nH]c(=O)c3ccccc23)cc1)c1cnn(CCC(F)(F)F)c1 [Example 398, N-(4-(4-Oxo-3,4-dihydrophthalazin-1-yl)phenyl)-1-(3,3,3-trifluoropropyl)-1H-pyrazole-4-carboxamide] | 0.101 to 1 µM | 0.0001 to 0.1 µM |
